Test results: patent publication US20070243137A1, “Cell and sub-cell methods for imaging and therapy” (priority 2006, published 2007)
Where “and” joins values, the source holds several entries; their conditions need not be identical. Equal values may be shown once.

Key:
[1] = MRI imaging (1.5 Tesla, T1) of rat bearing subcutaneous F98 glioma tumor after intravenous injection; format: in vivo
Description: A male rat bearing a subcutaneous F98 glioma tumor in its thigh was anesthetized and a catheter inserted into the femoral vein. The animal was then placed in a 1.5 Tesla clinical MRI scanner with a head coil around it. T1 images were acquired before injection. The sample in example 2 was used without further purification, and an amount was injected, corresponding to a dose of 0.1 mmol Gd/kg, which is the recommended dose/weight for gadodiamide use in vivo. Images were acquired using both T1 and T2 modes. […] For comparison, a rat bearing a similar tumor was injected with 0.1 mmol gadodiamide/kg. […] Many of the smaller vesicles filtered through the kidneys, since at 30 min post injection not only was contrast seen in the urine in the bladder (as also seen with the gadodiamide only preparation), but high contrast was seen on the surface of the urine in the bladder. This may be explained by the lower density of the lipid-containing vesicles, allowing them to float on the surface. […] It should be noted that whatever the fate of the contrast agent is, only an FDA approved standard amount was injected, and should not cause any toxic effects.

[2] = in vivo; cited from earlier work
[3] = abdominal aorta, 10 min after injection
[4] = hepatic portal vein, 10 min after injection
[5] = inferior vena cava, 10 min after injection

CNC(=O)CN(CCN(CCN(CC(=O)[O-])CC(=O)NC)CC(=O)[O-])CC(=O)[O-].[Gd+3] [gadodiamide, Gadolinium diethylenetriaminepentaacetic acid bismethyl-amide]
maximal tumor contrast relative to rat given vesicle-loaded gadodiamide ([1]; 0.1 mmol gadodiamide/kg, rat with similar tumor): approximately one-half | After injection (HU), tumor ([1]; F98 glioma tumor in thigh, 10 min after i.v. injection, 0.1 mmol Gd/kg): 828±82 HU and 828 HU | After injection (HU), Abdominal Aorta ([1]; abdominal aorta, 10 min after i.v. injection, 0.1 mmol Gd/kg): 627±76 HU and 627 HU | Contrast change (HU), Abdominal Aorta [1, 3]: 9 HU | Percent change, Abdominal Aorta [1, 3]: 1% | After injection (HU), Heart ([1]; heart, 10 min after i.v. injection, 0.1 mmol Gd/kg, T1): 540±137 HU and 540 HU | Contrast change (HU), Heart ([1]; heart, 10 min after injection): 91 HU | Percent change, Heart ([1]; heart, 10 min after injection): 20% | After injection (HU), hepatic portal vein ([1]; hepatic portal vein, 10 min after i.v. injection, 0.1 mmol Gd/kg): 774±47 HU and 774 HU | Contrast change (HU), hepatic portal vein [1, 4]: 96 HU | Percent change, hepatic portal vein [1, 4]: 14% | After injection (HU), Inferior vena cava ([1]; inferior vena cava, 10 min after i.v. injection, 0.1 mmol Gd/kg): 770±49 HU and 770 HU | Contrast change (HU), Inferior vena cava [1, 5]: 10 HU | Percent change, Inferior vena cava [1, 5]: 1% | After injection (HU), Kidney ([1]; kidney, 10 min after i.v. injection, 0.1 mmol Gd/kg): 1411±136 HU and 1411 HU | Contrast change (HU), Kidney ([1]; kidney, 10 min after injection): 848 HU | Percent change, Kidney ([1]; kidney, 10 min after injection): 151% | After injection (HU), Liver ([1]; liver, 10 min after i.v. injection, 0.1 mmol Gd/kg): 831±27 HU and 804±58 HU and 831 HU | Contrast change (HU), Liver ([1]; liver, 10 min after injection): 16 HU | Percent change, Liver ([1]; liver, 10 min after injection): 2% | vascular contrast in T1 mode ([1]; minutes after injection up to 20 minutes or more, 0.1 mmol/kg): not significantly contrasted | Contrast change (HU), tumor ([1]; tumor, 10 min after injection): 321 HU | Percent change, tumor ([1]; tumor, 10 min after injection): 63% | blood half-life [2]: ~20 min

O=C([O-])CN(CCN(CC(=O)[O-])CC(=O)O)CCN(CC(=O)[O-])CC(=O)O.[Gd+3] [Gd-DTPA, gadolinium diethytriaminepentaacetic acid]
blood half-life [2]: ~20 min
